Results as given in PubChem BioAssay AID1963860 (Molecular Pharmacology Branch, DTP, NCI, 2024).

Test system: CN0375-F725-PDC KRAS spheroid viability
Assay: Anticancer human tumor CN0375-F725-PDC patient-derived colon carcinoma cell line growth inhibition [KRAS2]
Conditions: spheroids with HUVEC and MSC; for IC50: curve of first compound; for viability, T/C: stronger effect = lower value
How it was run: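 KRAS-mutant tumor cells were grown as spheroids with HUVEC endothelial cells and human MSCs as stroma. Targeted agents were tested alone and with KRAS pathway inhibitors. Doses started at or near clinical Cmax, or 10 microM, descending half-log.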

[1] = second compound 0.1 µM, first compound 0.0316 µM
[2] = second compound 0.1 µM, first compound 0.1 µM
[3] = second compound 0.1 µM, first compound 0.316 µM
[4] = second compound 0.1 µM, first compound 1 µM
[5] = second compound 0.1 µM, first compound 3.16 µM
[6] = second compound 0.1 µM, first compound 10 µM
[7] = second compound 0.316 µM, first compound 0.0316 µM
[8] = second compound 0.316 µM, first compound 0.1 µM
[9] = second compound 0.316 µM, first compound 0.316 µM
[10] = second compound 0.316 µM, first compound 1 µM
[11] = second compound 0.316 µM, first compound 3.16 µM
[12] = second compound 0.316 µM, first compound 10 µM
[13] = second compound 1 µM, first compound 0.0316 µM
[14] = second compound 1 µM, first compound 0.1 µM
[15] = second compound 1 µM, first compound 0.316 µM
[16] = second compound 1 µM, first compound 1 µM
[17] = second compound 1 µM, first compound 3.16 µM
[18] = second compound 1 µM, first compound 10 µM
[19] = second compound 3.16 µM, first compound 0.0316 µM
[20] = second compound 3.16 µM, first compound 0.1 µM
[21] = second compound 3.16 µM, first compound 0.316 µM
[22] = second compound 3.16 µM, first compound 1 µM
[23] = second compound 3.16 µM, first compound 3.16 µM
[24] = second compound 3.16 µM, first compound 10 µM
[25] = second compound 10 µM, first compound 0.0316 µM
[26] = second compound 10 µM, first compound 0.1 µM
[27] = second compound 10 µM, first compound 0.316 µM
[28] = second compound 10 µM, first compound 1 µM
[29] = second compound 10 µM, first compound 3.16 µM
[30] = second compound 10 µM, first compound 10 µM
[31] = second compound 0.1 µM, first compound 0.00316 µM
[32] = second compound 0.1 µM, first compound 0.01 µM
[33] = second compound 0.316 µM, first compound 0.00316 µM
[34] = second compound 0.316 µM, first compound 0.01 µM
[35] = second compound 1 µM, first compound 0.00316 µM
[36] = second compound 1 µM, first compound 0.01 µM
[37] = second compound 3.16 µM, first compound 0.00316 µM
[38] = second compound 3.16 µM, first compound 0.01 µM
[39] = second compound 10 µM, first compound 0.00316 µM
[40] = second compound 10 µM, first compound 0.01 µM
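Further: spheroids exposed to agents for 7 days.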

In the case of `COC(=O)c1ccc2c(C(=Nc3ccc(N(C)C(=O)CN4CCN(C)CC4)cc3)c3ccccc3)c(O)[nH]c2c1` + CC1OCC2(CCN(c3cnc(Sc4ccnc(N)c4Cl)c(N)n3)CC2)C1N, the IC50 (second compound 0.1 µM) is reported as 2.34 µM, the IC50 (second compound 0.316 µM) is reported as 2.18 µM and the IC50 (second compound 1 µM) is reported as 2.25 µM. It also gave an IC50 (second compound 3.16 µM) of 2.01 µM, an IC50 (second compound 10 µM) of 1.27 µM and a viability, T/C [1] of 104%. For the same compound, the viability, T/C [2] was 103%, the viability, T/C [3] was 89.3% and the viability, T/C [4] was 85.9%. The viability, T/C [5] was 37.4%, the viability, T/C [6] was 0.19% and the viability, T/C [7] was 102%. The viability, T/C [8] was 91%, the viability, T/C [9] was 84.8% and the viability, T/C [10] was 81.3%. It also gave a viability, T/C [11] of 35.4%, a viability, T/C [12] of 0.2% and a viability, T/C [13] of 79.2%. It also gave a viability, T/C [14] of 84.6%, a viability, T/C [15] of 93.5% and a viability, T/C [16] of 75.3%. For the same compound, the viability, T/C [17] was 38.8%, the viability, T/C [18] was 0.16% and the viability, T/C [19] was 76%. It also gave a viability, T/C [20] of 82.4%, a viability, T/C [21] of 83.2% and a viability, T/C [22] of 69.2%. For the same compound, the viability, T/C [23] was 36.9%, the viability, T/C [24] was 0.37% and the viability, T/C [25] was 66%. It also gave a viability, T/C [26] of 73.2%, a viability, T/C [27] of 68.5% and a viability, T/C [28] of 60.3%. The viability, T/C [29] was 11.7% and the viability, T/C [30] was 1.38%.
Compound `CCN1CCN(Cc2ccc(Nc3ncc(F)c(-c4cc(F)c5nc(C)n(C(C)C)c5c4)n3)nc2)CC1` + CC1OCC2(CCN(c3cnc(Sc4ccnc(N)c4Cl)c(N)n3)CC2)C1N has an IC50 (second compound 0.1 µM) of over 1 µM, an IC50 (second compound 0.316 µM) of over 1 µM and an IC50 (second compound 1 µM) of over 1 µM. The IC50 (second compound 3.16 µM) was over 1 µM, the IC50 (second compound 10 µM) was over 1 µM and the viability, T/C [31] was 92.9%. For the same compound, the viability, T/C [32] was 83.3%, the viability, T/C [1] was 81.4% and the viability, T/C [2] was 88.2%. It also gave a viability, T/C [3] of 95.7%, a viability, T/C [4] of 92.8% and a viability, T/C [33] of 84.9%. It also gave a viability, T/C [34] of 82.2%, a viability, T/C [7] of 67.3% and a viability, T/C [8] of 74.6%. It also gave a viability, T/C [9] of 89.3%, a viability, T/C [10] of 84.9% and a viability, T/C [35] of 82.3%. It also gave a viability, T/C [36] of 80%, a viability, T/C [13] of 72.6% and a viability, T/C [14] of 75.2%. The viability, T/C [15] was 82.9%, the viability, T/C [16] was 81.7% and the viability, T/C [37] was 72.2%. For the same compound, the viability, T/C [38] was 74.8%, the viability, T/C [19] was 68.1% and the viability, T/C [20] was 66.6%. For the same compound, the viability, T/C [21] was 75.1%, the viability, T/C [22] was 68.8% and the viability, T/C [39] was 65.8%. It also gave a viability, T/C [40] of 69.3%, a viability, T/C [25] of 60.4% and a viability, T/C [26] of 61.1%. It also gave a viability, T/C [27] of 70.4% and a viability, T/C [28] of 53.3%.
With `COc1cc(Nc2ncc3c(n2)-c2ccc(Cl)cc2C(c2c(F)cccc2OC)=NC3)ccc1C(=O)O` + CNCc1ccccc1-c1csc(C(C)Nc2nc(C)nc3cc(OC)c(OC)cc23)c1 the IC50 (second compound 0.1 µM) was over 10 µM, the IC50 (second compound 0.316 µM) was over 10 µM and the IC50 (second compound 1 µM) was over 10 µM. It also gave an IC50 (second compound 3.16 µM) of under 0.0316 µM, an IC50 (second compound 10 µM) of under 0.0316 µM and a viability, T/C [1] of 101%. It also gave a viability, T/C [2] of 95%, a viability, T/C [3] of 93.5% and a viability, T/C [4] of 90.8%. It also gave a viability, T/C [5] of 89%, a viability, T/C [6] of 75.9% and a viability, T/C [7] of 96.8%. It also gave a viability, T/C [8] of 93.1%, a viability, T/C [9] of 88.4% and a viability, T/C [10] of 83.8%. For the same compound, the viability, T/C [11] was 87.3%, the viability, T/C [12] was 75.7% and the viability, T/C [13] was 58.2%. It also gave a viability, T/C [14] of 54.7%, a viability, T/C [15] of 57.5% and a viability, T/C [16] of 61%. It also gave a viability, T/C [17] of 61.7%, a viability, T/C [18] of 48.4% and a viability, T/C [19] of 0.72%. It also gave a viability, T/C [20] of 0.93%, a viability, T/C [21] of 0.51% and a viability, T/C [22] of 0.58%. For the same compound, the viability, T/C [23] was 1.16%, the viability, T/C [24] was 0.38% and the viability, T/C [25] was 0.31%. For the same compound, the viability, T/C [26] was 0.48%, the viability, T/C [27] was 0.55% and the viability, T/C [28] was 0.16%. The viability, T/C [29] was 0.24% and the viability, T/C [30] was 0.19%.
With `Cn1ncnc1[C@H]1c2n[nH]c(=O)c3cc(F)cc(c23)N[C@@H]1c1ccc(F)cc1` + C=CC(=O)N1CCN(c2nc(=O)n(-c3c(C)ccnc3C(C)C)c3nc(-c4c(O)cccc4F)c(F)cc23)C(C)C1 the IC50 (second compound 0.1 µM) was over 0.1 µM, the IC50 (second compound 0.316 µM) was over 0.1 µM and the IC50 (second compound 1 µM) was over 0.1 µM. The IC50 (second compound 3.16 µM) was over 0.1 µM, the IC50 (second compound 10 µM) was over 0.1 µM and the viability, T/C (second compound 0.1 µM, first compound 0.000316 µM) was 110%. The viability, T/C (second compound 0.1 µM, first compound 0.001 µM) was 103%, the viability, T/C [31] was 100% and the viability, T/C [32] was 103%. It also gave a viability, T/C [1] of 102%, a viability, T/C [2] of 98.2% and a viability, T/C (second compound 0.316 µM, first compound 0.000316 µM) of 107%. It also gave a viability, T/C (second compound 0.316 µM, first compound 0.001 µM) of 114%, a viability, T/C [33] of 104% and a viability, T/C [34] of 96.3%. The viability, T/C [7] was 99.3%, the viability, T/C [8] was 99.9% and the viability, T/C (second compound 1 µM, first compound 0.000316 µM) was 107%. For the same compound, the viability, T/C (second compound 1 µM, first compound 0.001 µM) was 104%, the viability, T/C [35] was 109% and the viability, T/C [36] was 104%. For the same compound, the viability, T/C [13] was 104%, the viability, T/C [14] was 99.5% and the viability, T/C (second compound 3.16 µM, first compound 0.000316 µM) was 114%. For the same compound, the viability, T/C (second compound 3.16 µM, first compound 0.001 µM) was 110%, the viability, T/C [37] was 108% and the viability, T/C [38] was 104%. The viability, T/C [19] was 108%, the viability, T/C [20] was 99.7% and the viability, T/C (second compound 10 µM, first compound 0.000316 µM) was 112%. It also gave a viability, T/C (second compound 10 µM, first compound 0.001 µM) of 106%, a viability, T/C [39] of 99.3% and a viability, T/C [40] of 96.8%. The viability, T/C [25] was 95.7% and the viability, T/C [26] was 93.5%.
`CC(C)NCC(C(=O)N1CCN(c2ncnc3c2C(C)CC3O)CC1)c1ccc(Cl)cc1` (stereo not given) + CC1OCC2(CCN(c3cnc(Sc4ccnc(N)c4Cl)c(N)n3)CC2)C1N was tested, and the IC50 (second compound 0.1 µM) was over 10 µM, the IC50 (second compound 0.316 µM) was over 10 µM and the IC50 (second compound 1 µM) was over 10 µM. It also gave an IC50 (second compound 3.16 µM) of over 10 µM, an IC50 (second compound 10 µM) of 5.95 µM and a viability, T/C [1] of 100%. It also gave a viability, T/C [2] of 95.9%, a viability, T/C [3] of 94.4% and a viability, T/C [4] of 88.7%. The viability, T/C [5] was 87.7%, the viability, T/C [6] was 71.7% and the viability, T/C [7] was 93.6%. The viability, T/C [8] was 93.5%, the viability, T/C [9] was 89.9% and the viability, T/C [10] was 82%. It also gave a viability, T/C [11] of 81.6%, a viability, T/C [12] of 70.8% and a viability, T/C [13] of 90.5%. For the same compound, the viability, T/C [14] was 88.7%, the viability, T/C [15] was 84.3% and the viability, T/C [16] was 74.8%. For the same compound, the viability, T/C [17] was 75.9%, the viability, T/C [18] was 66.2% and the viability, T/C [19] was 87.4%. For the same compound, the viability, T/C [20] was 83.9%, the viability, T/C [21] was 76.5% and the viability, T/C [22] was 70.3%. For the same compound, the viability, T/C [23] was 63.2%, the viability, T/C [24] was 56.5% and the viability, T/C [25] was 71.3%. For the same compound, the viability, T/C [26] was 68.3%, the viability, T/C [27] was 62.3% and the viability, T/C [28] was 54.9%. It also gave a viability, T/C [29] of 56.4% and a viability, T/C [30] of 46.3%.
